# Data: patent US11779628B2, “Use of cell-permeable peptide inhibitors of the JNK signal transduction pathway for the treatment of various diseases” (Xigen Inflammation Ltd., priority 2014, dated 2023)
# Columns and labels:
# [1] = Phase I pharmacokinetics after single iv infusion; details: human, in vivo
# Experimental: The primary objective of the study was to assess the safety and tolerability of XG-102 following intravenous (iv) infusion of single escalating doses of XG-102 to healthy male volunteers. The secondary objective of the study was to assess the pharmacokinetics of XG-102 following iv infusion of single escalating doses of XG-102 to healthy male volunteers. Doses were administered as a 60 minute iv infusion. For control purposes, placebo iv infusion was administered to control subjects. This was a single-centre, randomized, double blind, placebo controlled, ascending single dose, sequential group study. […] Screening was performed in the 3-week period prior to dosing. Dosing occurred on Day 0 for each subject. […] Data for all subjects were included in the safety analyses; data for all subjects who received XG-102 were included in the pharmacokinetic analyses.
# Brown Norway rats, STZ = assay: Diabetic retinopathy prevention study in STZ treated rat (IVT); format: in vivo; details: 0.2 and 2 μg/eye IVT
# From the text: The objective of this study was to determine the ability of XG-102 to prevent diabetic retinopathy when administered by intravitreal injections to streptozotocin (STZ)-treated (hyperglycemic) rats.
# Sterile vials containing 0.0412 g of inducing agent (STZ) were pre-weighed, sealed and transferred to the dosing room for administration to Groups 2 to 4 animals and Spares on Day −7. A duplicate set of empty, appropriately labeled sterile vials were provided. The reconstituted STZ solution was filtered into these vials for dosing. The Reference Item, 0.9% NaCl, was administered as received. XG-102 was prepared using the correction factor 1.383. A stock solution equal to the highest dose level was prepared in vehicle, 0.9% Sodium Chloride for Injection, and sterile filtered through a 0.22 μm polyvinylidene difluoride (PVDF) filter. The lower dose levels were prepared by directly diluting the stock solution. Dose formulations were prepared once at appropriate concentrations to meet dosage level requirements. All dilutions were prepared by directly diluting the stock solution with vehicle. Three dosing aliquots (Days 1, 8 and 15) were prepared and stored in a freezer set to maintain −20° C. Aliquot(s) of each dose level were thawed at ambient temperature on each day of dosing and the solution maintained at room temperature for no longer than 6 hours. […]
# [2] = test system: Primary cultured macrophages; format: cell-based
# Experimental: FIG. 24 Primary cultured macrophages were incubated with XG-102 (SEQ ID NO: 11) and extensively washed.
# rats = assay: Ocular MTD studies, sub-conjunctival administration; format: in vivo, rat
# From the text: Despite technical advances in ocular surgery, the physical trauma of this procedure continues to induce post-operative ocular inflammation warranting treatment. In ocular tissue, arachidonic acid is metabolized by cyclooxygenase (COX) to prostaglandins (PG) which are the most important lipid-derived mediators of inflammation. Surgical trauma causes a trigger of the arachidonic acid cascade which in turn generates PGs by activation of COX-1 and COX-2. Phospholipids in the cell membrane are the substrate for phospholipase A to generate arachidonic acid from which a family of chemically distinct PGs and leukotriens are produced. The ‘golden standard’ for the treatment of ocular inflammation are topical corticosteroids and/or Non-Steroidal Anti-inflammatory Drugs (NSAIDs). Side effects reported with (short-term) corticosteroid use include cataract formation, increased Intra Ocular Pressure (IOP), increased susceptibility to viral infections and retardation of the corneal epithelial and stromal wound healing. In addition, prolonged treatment with corticosteroids have been known to induce systemic side effects such as glucose impairment, hypertension, development of glaucoma, visual acuity defects, loss of visual field, and posterior subcapsular cataract formation. […]
# [3] = human, in vivo, 1 h
# Experimental: The quantification (plasma) of XG-102 in plasma was evaluated in a subset of 32 patients located in one site. A venous blood sample (2 ml) was obtained using a Li-Heparin tube 60 minutes after sub-conjunctival administration of study treatment. The exact time when the sample was performed was entered in the space provided on the e-CRF. The blood sample was centrifuged for 10 minutes at 2,500 RPM at room temperature. After centrifugation, using a pipette, the plasma was transferred to two 1.5 ml cryotubes. The cryotubes were then placed in a freezer at −80° C. and were then subsequently sent in dry ice with a temperature data logger to the central laboratory responsible for the analysis. Upon receipt at the central laboratory, the samples were stored at −80° C. until analyzed.
smiles,measurement,setting,value
CC(C)C[C@@H](NC(=O)[C@@H](Cc1ccccc1)NC(=O)[C@H]1CCCN1C(=O)[C@@H](CCC(N)=O)NC(=O)[C@H](NC(=O)[C@H]1CCCN1C(=O)[C@@H](CCCNC(=N)N)NC(=O)[C@@H](CO)NC(=O)[C@@H](CCC(N)=O)NC(=O)[C@H](N)CC(=O)O)C(C)C)C(=O)N[C@H](CC(N)=O)C(=O)N[C@H](CC(C)C)C(=O)N[C@@H](C(=O)N[C@@H](C(=O)N1CCC[C@@H]1C(=O)N[C@H](CCCNC(=N)N)C(=O)N[C@H](CCCCN)C(=O)N1CCC[C@@H]1C(=O)N[C@H](CCCNC(=N)N)C(=O)N1CCC[C@@H]1C(=O)N1CCC[C@@H]1C(=O)N[C@H](CCCNC(=N)N)C(=O)N[C@H](CCCNC(=N)N)C(=O)N[C@H](CCCNC(=N)N)C(=O)N[C@H](CCC(N)=O)C(=O)N[C@H](CCCNC(=N)N)C(=O)N[C@H](CCCNC(=N)N)C(=O)N[C@H](CCCCN)C(=O)N[C@H](CCCCN)C(=O)N[C@H](CCCNC(=N)N)C(=O)NCC(=O)O)[C@H](C)O)[C@H](C)O [XG-102],dose proportionality of AUC0-last,[1],increases in a more than linear proportion with dose in the tested dose range
same,MRT,[1]; 80 ug/kg,1.02 (14.7) h
same,"clinical signs, body weights, food consumption","Brown Norway rats, STZ","no XG-102-related clinical signs or effects on body weights, body weight gains or food consumption"
same,deaths,"Brown Norway rats, STZ",no XG-102-related deaths during the study
same,incorporation into macrophages,[2],is strongly incorporated into primary macrophages
same,No Observed Adverse Effect Level (NOAEL),rats,around 20 μg
same,XG-102 concentration in plasma,[3],< 10 ng/mL
